# According to the supplement of paper PMC13380429:
# Experiments:
# Conditions in all cases: 72 h
# HepG2 [1] = assay: relative viability EC50 (midpoint between 100% and the lowest measured viability); higher = less toxic
# Calu-3 [2] = assay: as above
# U2OS [3] = assay: as above
# Vero E6 [4] = assay: as above
# Caco-2 [5] = assay: drug sensitivity score (DSS) for viability; higher = more toxic; extreme values may be limits of the assay
# HepG2 [6] = assay: as above
# Calu-3 [7] = assay: as above
# U2OS [8] = assay: as above
# Vero E6 [9] = assay: as above
# Caco-2 [10] = assay: cell viability relative to DMSO; higher = less toxic
# HepG2 [11] = assay: as above
# Calu-3 [12] = assay: as above
# U2OS [13] = assay: as above
# Vero E6 [14] = assay: as above
# Caco-2 [15] = assay: relative viability EC50 (midpoint between 100% and the lowest measured viability); higher = less toxic
Compound,relative viability EC50 (HepG2 [1]),relative viability EC50 (Calu-3 [2]),relative viability EC50 (U2OS [3]),relative viability EC50 (Vero E6 [4]),drug sensitivity score (Caco-2 [5]),drug sensitivity score (HepG2 [6]),drug sensitivity score (Calu-3 [7]),drug sensitivity score (U2OS [8]),drug sensitivity score (Vero E6 [9]),cell viability (Caco-2 [10]; 1 nM),cell viability (Caco-2 [10]; 10 nM),cell viability (Caco-2 [10]; 100 nM),cell viability (Caco-2 [10]; 1000 nM),cell viability (Caco-2 [10]; 10000 nM),cell viability (HepG2 [11]; 1 nM),cell viability (HepG2 [11]; 10 nM),cell viability (HepG2 [11]; 100 nM),cell viability (HepG2 [11]; 1000 nM),cell viability (HepG2 [11]; 10000 nM),cell viability (Calu-3 [12]; 1 nM),cell viability (Calu-3 [12]; 10 nM),cell viability (Calu-3 [12]; 100 nM),cell viability (Calu-3 [12]; 1000 nM),cell viability (Calu-3 [12]; 10000 nM),cell viability (U2OS [13]; 1 nM),cell viability (U2OS [13]; 10 nM),cell viability (U2OS [13]; 100 nM),cell viability (U2OS [13]; 1000 nM),cell viability (U2OS [13]; 10000 nM),cell viability (Vero E6 [14]; 1 nM),cell viability (Vero E6 [14]; 10 nM),cell viability (Vero E6 [14]; 100 nM),cell viability (Vero E6 [14]; 1000 nM),cell viability (Vero E6 [14]; 10000 nM),relative viability EC50 (Caco-2 [15])
O=c1[nH]c(CCl)nc2sc3c(c12)CCCC3,> 10 µM,> 10 µM,> 10 µM,> 10 µM,1.4,0.2,0,0.5,0,96.8%,99.1%,98.3%,98.8%,71%,92.7%,94.5%,96.2%,107%,81.8%,116%,98.1%,97.9%,92%,109%,103%,94.5%,98.8%,100%,80.6%,99.4%,101%,95.8%,96.4%,92.9%,–
OCCC#Cc1nc(-c2ccc(F)cc2)c(-c2ccncc2)n1CCCc1ccccc1,> 10 µM,> 10 µM,> 10 µM,> 10 µM,1.2,0,2.2,1.1,0,98.4%,106%,91.6%,91.6%,78.6%,90.4%,99.5%,105%,99.6%,93.9%,101%,100%,83.6%,90.2%,79.7%,95.9%,92%,94.7%,90.1%,79.7%,92.5%,99.7%,87%,85%,100%,> 10 µM
c1ccc(-c2n[nH]cc2-c2ccnc3ccccc23)nc1,> 10 µM,> 10 µM,> 10 µM,> 10 µM,0,0,0,0,0,96.4%,93.1%,92.7%,103%,97.3%,110%,96.4%,107%,102%,116%,95.5%,105%,110%,105%,105%,94.1%,97.9%,95.9%,98.9%,91.4%,94.1%,99.4%,99.4%,89.3%,104%,> 10 µM
c1ccc2c(-c3cnn4cc(-c5ccc(N6CCNCC6)cc5)cnc34)ccnc2c1,1.57 µM,2.69 µM,1.75 µM,1.44 µM,7.2,9.3,6.4,8.7,9.7,107%,87.7%,120%,85.9%,11.4%,99.3%,111%,94.5%,75.7%,-0.1%,95.8%,98.6%,112%,93.9%,0.4%,95.1%,94.2%,92.1%,80.4%,-0.1%,90%,102%,98.1%,71.5%,-0.1%,1.94 µM
CC(C)[C@@H](CS(=O)(=O)C(C)C)N1C(=O)[C@@](C)(CC(=O)O)C[C@H](c2cccc(Cl)c2)[C@H]1c1ccc(Cl)cc1 [AMG-232],0.266 µM,> 10 µM,–,0.568 µM,0.7,14,0,5.2,8.1,99.6%,97.7%,94.2%,91.3%,82.9%,102%,96%,85.9%,33.5%,24.4%,99.9%,92.4%,93.1%,96.7%,93.8%,98.5%,95.5%,97.4%,71.2%,65.8%,96.8%,99.1%,98.4%,58.1%,44.6%,> 10 µM
O=C(O)CCCCC(CCSCc1ccccc1)SCc1ccccc1 (stereo unspecified) [CPI-613],> 10 µM,> 10 µM,> 10 µM,> 10 µM,–,0,0,0,0,–,–,–,–,–,97.5%,102%,97.2%,100%,104%,103%,104%,97.6%,106%,101%,100%,96.7%,95.5%,96.4%,112%,98.7%,94.8%,97.8%,95.7%,100%,–
CCC[C@@H](NC(=O)N1C(=O)C(CC)(CC)[C@@H]1Oc1ccc(C(=O)N2CCN(C)CC2)cc1)c1ccc2c(c1)OCO2 [DMP-777],> 10 µM,> 10 µM,> 10 µM,> 10 µM,1.4,0,0,0.1,0,103%,95%,99.6%,105%,63.3%,95.3%,97.1%,102%,90.8%,93%,105%,110%,105%,95.4%,94.1%,93.7%,103%,98.5%,96.7%,88%,94.8%,95.5%,93.4%,93.7%,96.8%,–
CN(Cc1ccccc1)C(=O)[C@H](Cc1ccc2ccccc2c1)NC(=O)[C@@H]1C[C@@H](O)CN1C(=O)c1cn(C)c2ccccc12 [FK-888],> 10 µM,> 10 µM,> 10 µM,> 10 µM,2.2,1.1,0.6,0,0,99.7%,105%,99.2%,94.7%,69.3%,106%,111%,106%,93%,82.3%,99.3%,94%,90.6%,90.5%,86.7%,103%,98.7%,98.5%,103%,87.2%,105%,103%,101%,95.2%,99%,–
COC[C@@H](NC(C)=O)C(=O)NCc1ccccc1 [Lacosamide],> 10 µM,> 10 µM,> 10 µM,> 10 µM,0,0,0,0,0,92.8%,90.5%,81.7%,98.8%,106%,98.3%,97.5%,98.3%,98%,96.1%,99.1%,99.5%,90.6%,114%,110%,–,–,–,–,–,98.5%,97.4%,86%,90.6%,104%,> 10 µM
CCCc1c(-c2ccc(O)cc2)nn(-c2ccc(O)cc2)c1-c1ccc(O)cc1 [PPT],> 10 µM,> 10 µM,> 10 µM,> 10 µM,2.1,0,0,0,0,102%,100%,104%,91%,75%,100%,99.2%,96%,97%,99.8%,94.8%,104%,97.4%,106%,116%,104%,102%,101%,98.9%,98.9%,99.2%,98.9%,98.7%,99.6%,96%,–
O=C(Nc1ccc(C(O)(C(F)(F)F)C(F)(F)F)cc1)c1ccc(C(F)(F)F)cc1 [SR-1078],> 10 µM,1.93 µM,> 10 µM,> 10 µM,2.3,0,4.1,0,0,104%,99.6%,95.4%,99.7%,56.4%,114%,99.9%,101%,99%,112%,109%,105%,118%,91.7%,48.6%,105%,107%,102%,102%,93.2%,100%,100%,99.6%,97.6%,95.6%,–
COc1ccc(C(=O)Nc2sc3c(c2C(N)=O)CCCC3)cc1OC [TCS-359],> 10 µM,> 10 µM,> 10 µM,> 10 µM,–,0,0,0,0,–,–,–,–,–,94.4%,102%,89.6%,97.6%,94.5%,100%,93.4%,101%,91.1%,105%,96.8%,99%,102%,98.4%,105%,108%,105%,96%,98.3%,98.3%,–
CC(C)(C)NC(=O)N[C@H](C(=O)N1C[C@H]2[C@@H]([C@H]1C(=O)NC(CC1CCC1)C(=O)C(N)=O)C2(C)C)C(C)(C)C (stereo partly specified) [boceprevir],> 10 µM,> 10 µM,> 10 µM,> 10 µM,–,0,0,0,0,–,–,–,–,–,98.2%,96.9%,109%,93.7%,95.7%,93.7%,101%,101%,95.2%,105%,102%,98.6%,99.6%,96.4%,97.5%,100%,102%,93.9%,96.1%,93.9%,–
CCCC(=O)O[C@]1(C(=O)CCl)[C@@H](C)C[C@H]2[C@@H]3CCC4=CC(=O)C=C[C@]4(C)[C@@]3(F)C(=O)C[C@@]21C [clobetasone-butyrate],> 10 µM,> 10 µM,> 10 µM,> 10 µM,1.7,0.3,0,0,0,94.7%,103%,94.1%,94.3%,74.6%,96.2%,104%,97.9%,90.3%,88.5%,96.1%,112%,97.3%,100%,89%,93.1%,96.1%,91.8%,95%,87.9%,108%,102%,109%,98.5%,93%,–
COc1cc2c(cc1Cc1cccc(Cl)c1F)c(=O)c(C(=O)O)cn2[C@H](CO)C(C)C [elvitegravir],> 10 µM,> 10 µM,> 10 µM,> 10 µM,1.4,0,0.2,0.5,0,95.3%,91.8%,87.6%,99.8%,69.3%,117%,106%,109%,104%,91%,99.2%,97.4%,102%,96.7%,88.1%,93.6%,95.7%,92.8%,96.3%,80.3%,101%,97.9%,98%,93.6%,99.5%,–
